Measured values published in patent US8969325B2, “TRPV1 antagonists” (AbbVie Inc., priority 2011, dated 2015).

What was measured:
human TRPV1 [1] = molecular target: T1, human TRPV1 (Homo sapiens (Human), UniProt Q8NER1); assay: Capsaicin Activation Assay (intracellular Ca2+, FLIPR); type: cell-based; details: recombinant HEK293 cells expressing hTRPV1, 50 nM capsaicin
Procedure: (Logan, Utah). Dulbecco's phosphate-buffered saline (D-PBS) (with 1 mg/mL glucose and 3.6 mg/l Na pyruvate, without phenol red), L-glutamine, hygromycin B, and Lipofectamine® were obtained from Life Technologies (Grand Island, N.Y.). G418 sulfate was obtained from Calbiochem-Novabiochem Corp. (San Diego, Calif.). […] (St. Louis, Mo.). […] The cDNA for human TRPV1 (hTRPV1) was isolated by reverse transcriptase-polymerase chain reaction (RT-PCR) from human small intestine poly A+ RNA supplied by Clontech (Palo Alto, Calif.) using primers designed surrounding the initiation and termination codons identical to the published sequences (Hayes et al. […] The resulting cDNA PCR products were subcloned into pCIneo mammalian expression vector (Promega) and fully sequenced using fluorescent dye-terminator reagents (Prism, PerkinElmer Applied Biosystems Division) and a PerkinElmer Applied Biosystems Model 373 DNA sequencer or Model 310 genetic analyzer. Expression plasmids encoding the hTRPV1 cDNA were transfected into HEK293 cells using Lipofectamine®. Forty-eight hours after transfection, the neomycin-resistant cells were selected with growth medium containing 800 μg/mL Geneticin (Life Technologies, formerly Gibco BRL). Surviving individual colonies were isolated and screened for TRPV1 activity. […] Compound stocks, 10 mM, were prepared in DMSO, and diluted serially across a 384-well plate using a Bravo BenchCel workstation (Agilent Technologies, Santa Clara, Calif.). […] On the day prior to the experiment, the recombinant HEK293 cells expressing human TRPV1 (hTRPV1) were removed from tissue culture flasks and plated in growth medium into black-walled clear-bottom 384-well Biocoat™ poly-D-lysine assay plates (BD Biosciences, Bedford, Mass.) using a Multidrop® dispenser (ThermoScientific, Waltham, Mass.). […] Molecular Devices, Sunnyvale, Calif.) was added to each well using the Multidrop® dispenser. […] Fluorescence readings were made at 1 to 5 second intervals over the course of the experimental run.

human TRPV1 [2] = molecular target: T1, human TRPV1; assay: Acid Activation Assay (pH 5.0, intracellular Ca2+, FLIPR); type: cell-based; details: percentage of the maximal pH 5.0-induced response remaining; recombinant HEK293 hTRPV1 cells; maximum concentration tested 37.5 μM
Procedure: Dulbecco's modified Eagle's medium (DMEM) with 4.5 m g/mL D-glucose, fetal bovine serum, L-glutamine, and 2-morpholinoethanesulfonic acid (MES) were purchased from Sigma-Aldrich Co. (St. Louis, Mo.). Dulbecco's phosphate-buffered saline (DPBS) with Ca^2+, Mg^2+, and 1 mg/mL D-glucose (pH 7.4), Geneticin®, 0.25% trypsin-1 mM EDTA, and penicillin-streptomycin were purchased from Invitrogen Corp. (Carlsbad, Calif.). The FLIPR® Calcium 4 assay kit was purchased from Molecular Devices (Sunnyvale, Calif.).
The cDNA for human TRPV1 (hTRPV1) was isolated by reverse transcriptase-polymerase chain reaction (RT-PCR) from human small intestine poly A+ RNA supplied by Clontech (Palo Alto, Calif.) using primers designed surrounding the initiation and termination codons identical to the published sequences (Hayes et al. Pain 2000, 88, 205-215). The resulting cDNA PCR products were subcloned into pCIneo mammalian expression vector (Promega) and fully sequenced using fluorescent dye-terminator reagents (Prism, PerkinElmer Applied Biosystems Division) and a PerkinElmer Applied Biosystems Model 373 DNA sequencer or Model 310 genetic analyzer. Expression plasmids encoding the hTRPV1 cDNA were transfected into HEK293 cells using Lipofectamine®. Forty-eight hours after transfection, the neomycin-resistant cells were selected with growth medium containing 800 μg/mL Geneticin (Life Technologies, formerly Gibco BRL). Surviving individual colonies were isolated and screened for TRPV1 activity. Cells expressing recombinant TRPV1 were maintained at 37° C. in DMEM containing 4 mM L-glutamine, 300 μg/mL G418 (Calbiochem) and 10% fetal bovine serum under a humidified 5% CO2 atmosphere.
The functional activity of compounds at the TRPV1 receptor was determined by measurement of intracellular Ca^2+ levels ([Ca^2+]i) using the Fluorescence Imaging Plate Reader (FLIPR)TETRA®. All compounds were tested over a 12-point one-half-log concentration range with 37.5 μM being the maximum concentration tested. Compound stocks, 10 mM, were prepared in DMSO, and diluted serially across a 384-well plate using a Bravo BenchCel workstation (Agilent Technologies, Santa Clara, Calif.). On the day prior to the experiment, the recombinant HEK293 cells expressing human TRPV1 (hTRPV1) were removed from tissue culture flasks and plated in growth medium into black-walled clear-bottom 384-well Biocoat™ poly-D-lysine assay plates (BD Biosciences, Bedford, Mass.) using a Multidrop® dispenser (ThermoScientific, Waltham, Mass.). On the day of the experiment growth medium was removed, and the no-wash FLIPR® Calcium-4 dye (λEX=470-495 nm, λEM=515-575 nm) was added to each well using the Multidrop® dispenser. The plated cells were incubated for 90-120 min in the dark at 25° C. The test compounds dissolved in DMSO were then added to the plates using an Agilent Bravo workstation (Agilent Technologies Inc., Santa Clara, Calif.). Three minutes later, a pH 5.0 solution was added to each well. Reagents were delivered at a rate of 40 μL/sec, and the final assay volume was 80 μL. Acidic pH solutions were prepared by titration of DPBS/MES with 1 N HCl. The intensity of the fluorescence was captured and digitally transferred to an interfaced PC. The maximum peak measured for the concentration range tested was used to calculate the corresponding peak increase in fluorescence over baseline (relative fluorescence units) which was expressed as the percentage (max % remain) of the maximal pH 5.0-induced response.
Table 1 reports the percentage (max % remain) of the maximal pH 5.0-induced response measured for the compounds tested in the recombinant HEK293 cell assay. Most of the compounds tested inhibited calcium flux only partially following TRPV1 activation by the pH 5.0 solution.

T1 sequence (Q8NER1 whole entry): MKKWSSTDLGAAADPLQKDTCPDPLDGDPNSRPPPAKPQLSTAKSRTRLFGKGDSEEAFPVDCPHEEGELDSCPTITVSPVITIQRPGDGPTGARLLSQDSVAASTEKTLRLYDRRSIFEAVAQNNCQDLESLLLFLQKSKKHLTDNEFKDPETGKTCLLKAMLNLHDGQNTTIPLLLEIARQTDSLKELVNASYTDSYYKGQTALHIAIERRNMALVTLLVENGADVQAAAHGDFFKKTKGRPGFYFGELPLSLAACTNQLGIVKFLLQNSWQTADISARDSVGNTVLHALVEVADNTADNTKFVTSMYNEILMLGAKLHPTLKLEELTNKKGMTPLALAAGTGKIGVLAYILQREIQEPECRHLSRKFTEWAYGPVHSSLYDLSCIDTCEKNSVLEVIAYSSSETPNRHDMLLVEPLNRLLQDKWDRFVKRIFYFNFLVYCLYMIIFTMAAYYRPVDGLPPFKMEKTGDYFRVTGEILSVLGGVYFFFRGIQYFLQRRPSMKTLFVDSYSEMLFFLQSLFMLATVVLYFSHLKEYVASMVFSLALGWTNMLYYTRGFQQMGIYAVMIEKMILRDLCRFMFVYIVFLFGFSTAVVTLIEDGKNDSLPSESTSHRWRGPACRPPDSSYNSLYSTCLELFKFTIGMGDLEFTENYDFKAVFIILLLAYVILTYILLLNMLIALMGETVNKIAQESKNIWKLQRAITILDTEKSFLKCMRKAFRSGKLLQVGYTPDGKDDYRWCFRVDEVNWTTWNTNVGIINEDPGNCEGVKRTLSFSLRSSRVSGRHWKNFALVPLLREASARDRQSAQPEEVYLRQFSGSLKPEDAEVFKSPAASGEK

| human TRPV1 H^+ (max % remain) (human TRPV1 [2]) [%] | Compound | IC50 (human TRPV1 [1]) [µM] |
| --- | --- | --- |
| 31 | 1-[(2R,4R)-7-chloro-2-(difluoromethyl)-2-methyl-3,4-dihydro-2H-chromen-4-yl]-3-(2-oxo-1,2,3,4-tetrahydroquinolin-7-yl)urea [Example 30] | 0.004 |
| 25 | CN1C(=O)NCc2c(NC(=O)N[C@@H]3CC(C)(C)Oc4cc(F)ccc43)cccc21 [Example 1, 1-[(4R)-7-fluoro-2,2-dimethyl-3,4-dihydro-2H-chromen-4-yl]-3-(1-methyl-2-oxo-1,2,3,4-tetrahydroquinazolin-5-yl)urea] | 0.01 |
| 35 | CN1C(=O)NCc2c(NC(=O)N[C@@H]3CC(C)(C)Oc4ccccc43)cccc21 [Example 4, 1-[(4R)-2,2-dimethyl-3,4-dihydro-2H-chromen-4-yl]-3-(1-methyl-2-oxo-1,2,3,4-tetrahydroquinazolin-5-yl)urea] |  |
| 24 | CN1C(=O)NCc2c(NC(=O)N[C@@H]3CC(C)(C)Oc4c3ccc(F)c4Cl)cccc21 [Example 5, 1-[(4R)-8-chloro-7-fluoro-2,2-dimethyl-3,4-dihydro-2H-chromen-4-yl]-3-(1-methyl-2-oxo-1,2,3,4-tetrahydroquinazolin-5-yl)urea] | 0.017 |
| 30 | CN1C(=O)NCc2c(NC(=O)N[C@@H]3CC(C)(C)Oc4cc(Cl)ccc43)cccc21 [Example 6, 1-[(4R)-7-chloro-2,2-dimethyl-3,4-dihydro-2H-chromen-4-yl]-3-(1-methyl-2-oxo-1,2,3,4-tetrahydroquinazolin-5-yl)urea] |  |
| 35 | CN1C(=O)NCc2c(NC(=O)N[C@@H]3CC(C)(C)c4ccccc43)cccc21 [Example 158, 1-[(1R)-3,3-dimethyl-2,3-dihydro-1H-inden-1-yl]-3-(1-methyl-2-oxo-1,2,3,4-tetrahydroquinazolin-5-yl)urea] |  |
| 60 | CN1Cc2ccc(NC(=O)N[C@@H]3CC(C)(C)Oc4c(F)cccc43)cc2NC1=O [Example 210, 1-[(4R)-8-fluoro-2,2-dimethyl-3,4-dihydro-2H-chromen-4-yl]-3-(3-methyl-2-oxo-1,2,3,4-tetrahydroquinazolin-7-yl)urea] |  |

More lines, now with the values behind:

| Compound | human TRPV1 H^+ (max % remain) (human TRPV1 [2]) [%] | IC50 (human TRPV1 [1]) [µM] |
| --- | --- | --- |
| 1-(1-methyl-2-oxo-1,2,3,4-tetrahydroquinazolin-5-yl)-3-[(4R)-8-(trifluoromethoxy)-3,4-dihydro-2H-chromen-4-yl]urea [Example 138] | 19 | 0.038 |
| 1-[(2S,4R)-2-(fluoromethyl)-2-methyl-7-(trifluoromethyl)-3,4-dihydro-2H-chromen-4-yl]-3-(1-methyl-2-oxo-1,2-dihydroquinolin-5-yl)urea [Example 84] | 40 | 0.023 |
| 1-[(4R)-7-chloro-2,2-diethyl-3,4-dihydro-2H-chromen-4-yl]-3-(1-methyl-2-oxo-1,2,3,4-tetrahydroquinazolin-5-yl)urea [Example 145] | 7 | 0.16 |
| CN1C(=O)NCc2c(NC(=O)N[C@@H]3CC(CF)(CF)Oc4c3ccc(Cl)c4F)cccc21 [Example 3, 1-[(4R)-7-chloro-8-fluoro-2,2-bis(fluoromethyl)-3,4-dihydro-2H-chromen-4-yl]-3-(1-methyl-2-oxo-1,2,3,4-tetrahydroquinazolin-5-yl)urea] | 19 |  |
| CCC1(CC)C[C@@H](NC(=O)Nc2cccc3c2CNC(=O)N3C)c2ccc(F)cc2O1 [Example 143, 1-[(4R)-2,2-diethyl-7-fluoro-3,4-dihydro-2H-chromen-4-yl]-3-(1-methyl-2-oxo-1,2,3,4-tetrahydroquinazolin-5-yl)urea] | 19 |  |
| CN1C(=O)CCc2ccc(NC(=O)N[C@@H]3CCOc4c3cccc4C(F)(F)F)cc21 [Example 284, 1-(1-methyl-2-oxo-1,2,3,4-tetrahydroquinolin-7-yl)-3-[(4R)-8-(trifluoromethyl)-3,4-dihydro-2H-chromen-4-yl]urea] | 79 |  |
